Laboratory results as given in ChEMBL document CHEMBL1201862, “PubChem BioAssay data set” (2004).
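48-hour exposure; five concentrations; linearly interpolated endpoints. GI50 = concentration required for 50% inhibition of growth.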 Activity calls are given as the source filed them. Rule as the data show it: active = GI50 up to about 1.1 µM and inactive = higher. Where a SMILES comes first, the peptide text is derived from it. The star is where a group is joined. Cbz = O=C(OCc1ccccc1)*; NHNH2 = NN*

Experiments:
Assay in all cases: NCI tumour cell line growth inhibition, 48 h
A498 = test system: A498
A549 = test system: A549
ACHN = test system: ACHN
CAKI-1 = test system: CAKI-1
HCC 2998 = test system: HCC 2998
HCT-15 = test system: HCT-15
HOP-92 = test system: HOP-92
LOX IMVI = test system: LOX IMVI
Malme-3M = test system: Malme-3M
NCI-H226 = test system: NCI-H226
RPMI-8226 = test system: RPMI-8226
RXF 393 = test system: RXF 393
SF-295 = test system: SF-295
SK-MEL-2 = test system: SK-MEL-2
SNB-75 = test system: SNB-75
SR = test system: SR
DU-145 = test system: DU-145
MCF7 = test system: MCF7
NCI/ADR-RES = test system: NCI/ADR-RES

Row | SMILES | GI50 (A498) | GI50 (A549) | GI50 (ACHN) | GI50 (CAKI-1) | GI50 (HCC 2998) | GI50 (HCT-15) | GI50 (HOP-92) | GI50 (LOX IMVI) | GI50 (Malme-3M) | GI50 (NCI-H226) | GI50 (RPMI-8226) | GI50 (RXF 393) | GI50 (SF-295) | GI50 (SK-MEL-2) | GI50 (SNB-75) | GI50 (SR) | GI50 (DU-145) | GI50 (MCF7) | GI50 (NCI/ADR-RES)
1 | CCOC(=O)NN1C(=O)C(=P(c2ccccc2)(c2ccccc2)c2ccccc2)C(C(=O)OC)=C1C | > 100 µM (inactive) | > 100 µM (inactive) | > 100 µM (inactive) | > 100 µM (inactive) | > 100 µM (inactive) | > 100 µM | > 100 µM (inactive) | > 100 µM (inactive) | > 100 µM (inactive) | > 100 µM (inactive) | > 100 µM (inactive) | > 100 µM (inactive) | > 100 µM (inactive) | > 100 µM (inactive) | > 100 µM (inactive) | > 100 µM (inactive) |  |  | 
2 | O=C1NC(=O)C(C(CC(=O)c2ccc(Cl)cc2)c2ccc(Cl)cc2)C(=O)N1 (configuration not stated) | > 100 µM (inactive) | > 100 µM (inactive) | > 100 µM (inactive) |  | 6.73 µM (inactive) | > 100 µM | 40.4 µM (inactive) | 54 µM (inactive) | 0.225 µM (active) | > 100 µM (inactive) | 33.7 µM (inactive) |  | > 100 µM (inactive) | > 100 µM (inactive) | > 100 µM (inactive) | 35.2 µM (inactive) | > 100 µM (inactive) | 17.2 µM (inactive) | 
3 | COc1ccc(C2=Nc3ccccc3SC(C)C2)cc1OC (configuration not stated) | 23.8 µM (inactive) |  | 22.1 µM (inactive) | 19.6 µM (inactive) | 18.6 µM (inactive) | 17.8 µM | 38.1 µM (inactive) | 17.9 µM (inactive) | 21.4 µM (inactive) | 20.4 µM (inactive) | 13.8 µM (inactive) |  | 21 µM (inactive) | 30.3 µM (inactive) | 14.3 µM (inactive) | 20.8 µM (inactive) |  |  | 
4 | CC(C)CNC(=O)Cn1c2c(c3ccccc31)CCCC2 | 22.2 µM (inactive) | 49.7 µM (inactive) | 33 µM (inactive) | 79.3 µM (inactive) | > 100 µM (inactive) | > 100 µM | 43.8 µM (inactive) | 39.5 µM (inactive) | 82.4 µM (inactive) |  | 40.6 µM (inactive) |  | 35.8 µM (inactive) | > 100 µM (inactive) |  | > 100 µM (inactive) |  | > 100 µM (inactive) | 59.7 µM (inactive)
5 | CCCCCCCCCCCc1noc2c1C(=O)C(O)CC2 (configuration not stated) | 34.9 µM (inactive) | 22 µM (inactive) | 32.8 µM (inactive) | 32.8 µM (inactive) |  | 20.7 µM | 20.1 µM (inactive) | 18.1 µM (inactive) |  | 16.1 µM (inactive) | 25 µM (inactive) | 14.2 µM (inactive) | 21.2 µM (inactive) | 17.5 µM (inactive) | 24.1 µM (inactive) | 27.2 µM (inactive) |  |  | 
6 | CCCCN(CCCC)C(=O)C(=O)CC(=O)/C=C/c1ccccc1 | > 100 µM (inactive) | > 100 µM (inactive) | > 100 µM (inactive) | > 100 µM (inactive) | > 100 µM (inactive) | > 100 µM | > 100 µM (inactive) | > 100 µM (inactive) | > 100 µM (inactive) | > 100 µM (inactive) | > 100 µM (inactive) | > 100 µM (inactive) | > 100 µM (inactive) | > 100 µM (inactive) | > 100 µM (inactive) | > 100 µM (inactive) |  |  | 
7 | CC(=O)C1(C(=O)C(=[N+]=[N-])S(=O)(=O)c2ccccc2)CC1 |  | > 100 µM (inactive) | > 100 µM (inactive) |  | > 100 µM (inactive) | > 100 µM |  | > 100 µM (inactive) | > 100 µM (inactive) | > 100 µM (inactive) | 83.2 µM (inactive) | > 100 µM (inactive) | > 100 µM (inactive) | > 100 µM (inactive) | > 100 µM (inactive) | > 100 µM (inactive) | > 100 µM (inactive) | > 100 µM (inactive) | > 100 µM (inactive)
8 | CCOc1ccc(NC(=O)/C(=C\c2ccc(C)cc2)C(C)=O)cc1 | > 100 µM (inactive) | > 100 µM (inactive) | > 100 µM (inactive) | > 100 µM (inactive) | > 100 µM (inactive) | > 100 µM | > 100 µM (inactive) | > 100 µM (inactive) | > 100 µM (inactive) | > 100 µM (inactive) | > 100 µM (inactive) |  | > 100 µM (inactive) | > 100 µM (inactive) | > 100 µM (inactive) | < 0.01 µM (active) |  |  | 
9 | CCOC(=O)CCC(NC(=O)OCc1ccccc1)C(=O)NC(CCC(=O)OCC)C(=O)NN (configuration not stated) (Cbz-Glu(OEt)-Glu(OEt)-NHNH2; configuration not given here) | > 100 µM (inactive) | > 100 µM (inactive) | > 100 µM (inactive) |  | > 100 µM (inactive) | > 100 µM | > 100 µM (inactive) |  | > 100 µM (inactive) | > 100 µM (inactive) | > 100 µM (inactive) |  |  | > 100 µM (inactive) | > 100 µM (inactive) | > 100 µM (inactive) |  | > 100 µM (inactive) | 
10 | CC1(C)CCc2cc3c(cc2O1)OCCC3=O | > 100 µM (inactive) | > 100 µM (inactive) | > 100 µM (inactive) | 92.7 µM (inactive) | > 100 µM (inactive) | > 100 µM | > 100 µM (inactive) | > 100 µM (inactive) | > 100 µM (inactive) | > 100 µM (inactive) | 96.2 µM (inactive) | > 100 µM (inactive) | > 100 µM (inactive) |  | > 100 µM (inactive) | 58.1 µM (inactive) |  |  | 
11 | NCc1cccc(O)c1O | > 100 µM (inactive) | > 100 µM (inactive) | > 100 µM (inactive) | > 100 µM (inactive) |  | > 100 µM | > 100 µM (inactive) | > 100 µM (inactive) | > 100 µM (inactive) | > 100 µM (inactive) | > 100 µM (inactive) | > 100 µM (inactive) | > 100 µM (inactive) | > 100 µM (inactive) | > 100 µM (inactive) | > 100 µM (inactive) |  |  | 
12 | O=c1c2cc(Br)ccc2nc(CNc2ccccc2)n1-c1ccccc1 | 34.6 µM (inactive) | 21.7 µM (inactive) | 18.7 µM (inactive) | 3.02 µM (inactive) | 19.5 µM (inactive) | 16.7 µM | 19.1 µM (inactive) | 7.5 µM (inactive) | 14.8 µM (inactive) | 18.5 µM (inactive) | 8.97 µM (inactive) | 15.7 µM (inactive) | 24.2 µM (inactive) | 20.7 µM (inactive) | 20.5 µM (inactive) | 6.52 µM (inactive) |  |  | 
13 | C/C(CC(=O)Nc1ccc(C)c(C)c1)=N\N(c1ccccc1)c1ccccc1 | > 100 µM (inactive) | > 100 µM (inactive) | 58.9 µM (inactive) | 80.7 µM (inactive) | > 100 µM (inactive) | 49 µM | > 100 µM (inactive) | 36.1 µM (inactive) | > 100 µM (inactive) | > 100 µM (inactive) | 47.1 µM (inactive) | 63.2 µM (inactive) | > 100 µM (inactive) | 55.6 µM (inactive) | 65.9 µM (inactive) | 22.4 µM (inactive) |  |  | 
